# Experiments:
# HeLa Cells [1] = test: Transfection of HeLa cells with DOTMA/DOPE/peptide and eGFP plasmid, fluorescent plate reader; format: cell-based; details: DOTMA/DOPE 1:1 plus peptide with RRRRRRRRRRRR (SEQ ID NO: 109) at n terminus; EF1Alpha eGFP plasmid; 0.01 mL complex; 42 hours
# Method: (§1) Cells were plated to so that on the day of transfection the cells were 60-70% confluent in 96 well tissue culture plates. A DOMTA/DOPE Lipid solution (1:1 molar ratio) at 2 mg/mL in water were mixed with an equal volume of surface ligand peptides that had the nucleic acid binding moiety RRRRRRRRRRRR (SEQ ID NO: 109) covalently linked to the n terminus of each peptide during peptide synthesis. Peptides were at 2 mg/mL in water. The DOTMA/DOPE and the surface ligand peptide solution the transfection reagent was diluted 1 to 1 (v/v) in water. DOMTA/DOPE/PEPTIDE solutions were added to 0.1 mL of a plasmid DNA solution (EF1Alpha eGFP plasmid) at 5 μg/mL in OptiMEM. Lipofectamine 2000 was obtained from Life Technologies.
# (§2) All solutions were at room temperature. A volume of 0.2 mL of a 5 μg/mL solution of DNA was aliquoted into each well of a non-tissue cultured treated plate. 4.0 μL of transfection reagents were added to DNA solutions respectively. The transfection reagent and DNA solution was mixed by pipetting up and down twice. Transfection complexes were formed for 10 minutes. After 10 minutes, 0.01 or 0.02 mL of the transfection complex was added to cells. HuVEC, HeLa, human adult keratinocytes, human primary adult fibroblast, and rat cortical neurons all respectively received 0.01 mL of the tramsfectopm complex. Human skeletal muscle cells, mouse C2C12 cells, Jurkat, and THP-1 cells received 0.02 mL of the transfection complex. Cells were incubated for 42 hours at 37° C. at 5% CO2. Plates were read on a fluorescent plate reader. Cells were also examined visually under a microscope to assess the extent of transfection (in terms of the percent of cells transfected) with a fluorescent microscope. Other modes of analysis, for example quantification with B-galactosidase or luciferase reports plasmids can also be used. […] Surface ligand that caused increase expression of GFP over the lipid DOTMA with no surface ligand were considered to enhance transfection or had higher % cells transfected were considered to enhance transfection. Peptides that gave greater than 2 fold enhancement are noted in bold and could be further optimized by adding different transfection enhancers or could be used with different cationic lipids or polymers.
# HuVec Cells = test: Transfection of HuVec cells with DOTMA/DOPE/peptide and eGFP plasmid, fluorescent plate reader; format: cell-based; details: DOTMA/DOPE 1:1 plus peptide with RRRRRRRRRRRR (SEQ ID NO: 109) at n terminus; EF1Alpha eGFP plasmid; 0.01 mL complex; 42 hours
# Method: as §1, §2
# NL-1 iPS Cells = test: Transfection of NL-1 iPS cells with DOTMA/DOPE/peptide and eGFP plasmid, fluorescent plate reader; format: cell-based; details: DOTMA/DOPE 1:1 plus peptide with RRRRRRRRRRRR (SEQ ID NO: 109) at n terminus; EF1Alpha eGFP plasmid; 42 hours
# Method: as §1, §2
# C2C12 Cells = test: Transfection of C2C12 cells with DOTMA/DOPE/peptide and eGFP plasmid, fluorescent plate reader; format: cell-based, mouse; details: DOTMA/DOPE 1:1 plus peptide with RRRRRRRRRRRR (SEQ ID NO: 109) at n terminus; EF1Alpha eGFP plasmid; 0.02 mL complex; 42 hours
# Method: as §1, §2
# Human Fibroblast Cells = test: Transfection of human fibroblast cells with DOTMA/DOPE/peptide and eGFP plasmid, fluorescent plate reader; format: cell-based; details: DOTMA/DOPE 1:1 plus peptide with RRRRRRRRRRRR (SEQ ID NO: 109) at n terminus; EF1Alpha eGFP plasmid; 0.01 mL complex; 42 hours
# Method: as §1, §2
# Jurkat Cells = test: Transfection of Jurkat cells with DOTMA/DOPE/peptide and eGFP plasmid, fluorescent plate reader; format: cell-based; details: DOTMA/DOPE 1:1 plus peptide with RRRRRRRRRRRR (SEQ ID NO: 109) at n terminus; EF1Alpha eGFP plasmid; 0.02 mL complex; 42 hours
# Method: as §1, §2
# HeLa Cells [2] = test: Transfection of HeLa cells with DOTMA/SEQ ID NO: 72/peptide compared with Lipofectamine 2000; format: cell-based; details: fusogenic peptide 0.1 mg/mL
# Method: as §1, §2
# The fusogenic peptide was added to the DOMTA/peptide formulation to achieve a final concentration of 0.1 mg/mL to see if transfection reagents were further enhanced by the addition of a fusogenic peptide and could provide higher transfection efficiency into HeLa cells and expression than the commercially available Lipofectamine 2000.
# some examined cell types = test: Transfection expression and % cells transfected over the no peptide control; format: cell-based; details: on some examined cell types
# Method: as §1, §2
# [3] = 0.1 μL of DOTMA/SEQ ID NO: 72/Peptide in well of a 96 well plate
# [4] = 0.2 μL of DOTMA/SEQ ID NO: 72/Peptide in well of a 96 well plate
# [5] = 0.3 μL of DOTMA/SEQ ID NO: 72/Peptide in well of a 96 well plate
# [6] = 0.4 μL of DOTMA/SEQ ID NO: 72/Peptide in well of a 96 well plate
Substance,RF (Relative Fluorescence) of Transfection of HeLa Cells (HeLa Cells [1]),RF (Relative Fluorescence) of Transfection of HuVec Cells (HuVec Cells),RF (Relative Fluorescence) of Transfection of NL-1 iPS Cells (NL-1 iPS Cells),RF (Relative Fluorescence) of Transfection of C2C12 Cells (C2C12 Cells),RF (Relative Fluorescence) of Transfection of Human Fibroblast Cells (Human Fibroblast Cells),RF (Relative Fluorescence) of Transfection of Jurkat Cells (Jurkat Cells),"RF (Relative Fluorescence), DOTMA/SEQ ID NO: 72/Peptide, HeLa Cells (HeLa Cells [2]; [3])","RF (Relative Fluorescence), DOTMA/SEQ ID NO: 72/Peptide, HeLa Cells (HeLa Cells [2]; [4])","RF (Relative Fluorescence), DOTMA/SEQ ID NO: 72/Peptide, HeLa Cells (HeLa Cells [2]; [5])","RF (Relative Fluorescence), DOTMA/SEQ ID NO: 72/Peptide, HeLa Cells (HeLa Cells [2]; [6])",transfection expression and the % cells transfected over the no peptide control (some examined cell types)
326 (RLVSYSGVLFFLK; Peptidic transfection agent) [compound 326],18946,4932,9239,8553,3070,3018,6887,9487,10330,9227,increased
341 (LRAHAVDVNG; Peptidic transfection agent) [compound 341],4108,15906,20446,2141,2284,18042,6406,7469,8020,7546,increased
237 (KNSFMALYLSKG; Peptidic transfection agent) [compound 237],21288,2302,8632,6491,2184,1501,8986,9753,8015,8288,increased
230 (WQPPRARI; Peptidic transfection agent) [compound 230],8944,9067,14524,2606,11771,10229,–,–,–,–,increased
361 (YIGSR; Peptidic transfection agent) [compound 361],3698,6017,9363,585,7014,7006,–,–,–,–,increased
327 (VAEIDGIEL; Peptidic transfection agent) [compound 327],5345,21018,31383,2043,4662,14546,–,–,–,–,increased
345 (TAGSCLRKFSTMFLF; Peptidic transfection agent) [compound 345],8493,2939,7836,6569,2816,2462,–,–,–,–,increased
220 (ATETTITIS; Peptidic transfection agent) [compound 220],9398,8737,15892,1470,4516,6428,–,–,–,–,increased
338 (GTPGPQGIA; Peptidic transfection agent) [compound 338],6241,12000,17288,2290,5625,4475,–,–,–,–,increased
226 (ANGQTPIQRYIK; Peptidic transfection agent) [compound 226],7340,20864,24920,1664,3431,12976,–,–,–,–,increased
229 (PPFLMLLKGSTR; Peptidic transfection agent) [compound 229],8816,5452,13491,1164,6811,8079,–,–,–,–,increased
256 (RQVFQVAYIIIKA; Peptidic transfection agent) [compound 256],2243,3030,1825,3207,2656,3322,–,–,–,–,increased
332 (TWYKIAFQRNRK; Peptidic transfection agent) [compound 332],9198,4221,8725,537,5178,3052,–,–,–,–,increased
216 (YRVRVTPKEKTGPMKE; Peptidic transfection agent) [compound 216],6181,14693,19626,1001,3117,3570,–,–,–,–,increased
